# Assay results taken from publication PMC10673995, “Discovery of a novel cardiac-specific myosin modulator using artificial intelligence-based virtual screening” (Nature Communications, 2023).
# Several values for one entry are separate records, joined by “and”; a condition that tells them apart may be missing. Equal values may be shown once.
# Tests used:
# [1] = test system: demembranated rat ventricular trabeculae; test: Mechanics of demembranated ventricular trabeculae (force, pCa50, ktr); set-up: Isometric force, individual trabeculae / force re-development, Representative Traces: unit not given here; details: for Normalized force, Force-pCa Titration / force re-development, Representative Traces: 20 μM F10; for Normalized Force (Tension): pCa 5.9
# Procedure: Wistar rats (Rattus norvegicus, male, 200–250 g, 7 weeks old) were killed by cervical dislocation without the use of anesthetics (Schedule 1 procedure in accordance with UK Animal Scientific Procedure Act, 1986) and demembranated right ventricular trabeculae were prepared as described previously.
# (§1) BSR-cRLCs were exchanged into demembranated trabeculae by extraction in CDTA-rigor solution (composition in mmol L^−1: 5 CDTA, 50 KCl, 40 Tris-HCl pH 8.4, 0.1% (v/v) Triton X-100) for 30 min followed by reconstitution with 40 μmol L^−1 BSR-cRLC in relaxing solution (composition in mmol L^−1: 25 Imidazole, 15 Na2Creatine phosphate (Na2CrP), 78.4 KPropionate (KPr), 5.65 Na2ATP, 6.8 MgCl2, 10 K2EGTA, 1 DTT, pH 7.1) for 1 h, replacing ~50% of the endogenous cRLC[40],[64].
# The sarcomere length of trabeculae was adjusted to 2.1 μm by laser diffraction in relaxing solution prior to each activation. […] Each activation was preceded by a 2-min incubation in pre-activating solution (composition in mmol L^−1: 25 Imidazole, 15 Na2CrP, 108.2 KPr, 5.65 Na2ATP, 6.3 MgCl2, 0.2 K2EGTA, 1 DTT, pH 7.1). Solutions with varying concentrations of free [Ca^2+] were prepared by mixing relaxing and activating solutions using MAXCHELATOR software (maxchelator.stanford.edu). Isometric force and steady-state fluorescence polarization values were measured once steady force had been established. The dependence of force and order parameters on free calcium concentration was fitted to data from individual trabeculae using non-linear least-squares regression to the modified Hill Eq. (1):1 F=Y0+A⋅([Ca^2+]^nH)/(−log10[pCa50]^nH+[Ca^2+]^nH) where pCa50 is the negative logarithm of [Ca^2+] corresponding to half-maximal change in F, nH is the Hill coefficient, Y0 is the baseline, and A is the amplitude (for normalized force data: Y0 = 0 and A = 1).
# [2] = test system: orientation of the RLC-region of myosin in demembranated trabeculae; test: Polarized fluorescence of BSR-cRLC-E in demembranated trabeculae (order parameter <P2>); set-up: species or system rat (Rattus norvegicus)
# Source text: In a subset of trabeculae, we replaced the endogenous myosin regulatory light chain (RLC) with a recombinant cardiac RLC crosslinked to a bifunctional sulforhodamine (BSR) along its E-helix (BSR-cRLC-E)[39],[40]. This allowed us to determine the orientation of the RLC-region of myosin in demembranated trabeculae using polarized fluorescence (Fig. 4b; Supplementary Table 2). […] In contrast, F10 increased <P2> for the E-helix probe, under both relaxing and activating conditions, and abolished the orientation change in the myosin heads associated with Ca^2+-activation of the myofilaments. […] As a step towards elucidating the molecular mechanism behind F10’s stabilizing effect on the myosin head OFF conformation, we measured the affinity of isolated bovine β-cardiac myosin S1 in the presence of various nucleotides and F10 for the myosin S2 tail domain using Microscale Thermophoresis (Fig. S4).
# as §1
# Composition of experimental solutions and activation protocols were identical to those described previously for fluorescence polarization experiments. Fluorescence emission from BSR-cRLCs in trabeculae were collected by a 0.25 N.A. objective using an excitation light beam in line with the emission path. […] The fluorescence emission was separated into parallel and perpendicular components by polarizing beam splitters, and its intensity measured by two photomultipliers, allowing determination of the order parameter <P2> that describes the dipole orientations in the trabeculae. […]
# [3] = test system: isolated cardiac muscle fibers; details: read-out: reported IC50 for force inhibition; cited from earlier work
smiles,measurement,setting,value
CCc1cc2c(=O)n(NC(=S)NC(C)C)cnc2s1 [F10],"Normalized force, Force-pCa Titration",[1]; pCa 4.5,1.00
same,"Normalized force, Force-pCa Titration",[1]; pCa 5.5,0.88 and 0.85 and 0.81
same,"Normalized force, Force-pCa Titration",[1]; pCa 5.6,0.73 and 0.76 and 0.72
same,"Normalized force, Force-pCa Titration",[1]; pCa 5.7,0.48 and 0.55 and 0.53
same,"Normalized force, Force-pCa Titration",[1]; pCa 5.8,0.13 and 0.14 and 0.18
same,"force re-development, Representative Traces",[1]; t 0.0001 s,0.9946
same,"force re-development, Representative Traces",[1]; t 0.0002 s,0.9927
same,"force re-development, Representative Traces",[1]; t 0.0003 s,0.9927
same,"force re-development, Representative Traces",[1]; t 0.0004 s,0.9927
same,IC50,"[1]; Rattus norvegicus, pCa 5.9, about 50% maximal activation, read-out: IC50 active isometric force",9 µM
same,pCa50 of force development,"[1]; in the presence of F10 (20 μM), control 5.88 ± 0.02",5.69 ± 0.01 and 5.68 and 5.693 and 5.684
same,Tmin,[1]; individual replicates,2.9 and 4.1 and 1.3 and 4.3 and 4.9
same,ktr,[1]; individual replicates,35.4 and 37.1 and 32.7
same,nH,[1]; individual replicates,5.8 and 6.0 and 4.9
same,pCa50,[1]; individual replicates,5.68 (2×) and 5.69
same,"Isometric force, individual trabeculae","[1]; pCa 4.5, 20 μmol L^−1 F10",16.0321 and 19.6135 and 8.993 and 17.2526 and 16.2235
same,decrease of maximal active isometric tension,"[1]; pCa 4.5, 20 μmol L^−1 F10",more than 75%
same,Normalized Force (Tension),[1]; F10 5 micromolar,80.6034 % control
same,Normalized Force (Tension),[1]; F10 10 micromolar,50.8621 % control
same,Normalized Force (Tension),[1]; F10 20 micromolar,27.5862 % control
same,Normalized Force (Tension),[1]; F10 40 micromolar,17.2414 % control
same,"Isometric force, individual trabeculae","[1]; pCa 9, 20 μmol L^−1 F10",2.857 and 4.07 and 1.256 and 4.268 and 4.903
same,effect on passive tension,"[1]; pCa 9, 20 μmol L^−1 F10",no effect
same,Tmin (passive tension),"[1]; pCa 9, 20 μmol L^−1 F10, control 3.4 ± 0.5",3.5 ± 0.6 mN mm-2
same,"rate of force re-development ktr, individual trabeculae (Bar Graph)","[1]; slack-re-stretch protocol, F10, in s-1 (unit assumed)",35.4 and 37.11 and 32.67
same,rate of force re-development ktr,"[1]; slack-re-stretch protocol, in the presence of F10, control 12.0 ± 1.9",35.1 ± 1.3 s⁻¹ and 35 ± 1 s⁻¹
same,order parameter <P2>max,"[2]; full Ca^2+ activation pCa 4.5, 20 μmol L^−1 F10, control 0.078 ± 0.008",0.160 and 0.235 and 0.225
same,<P2>max,[2]; individual replicates,0.160 and 0.235 and 0.225
same,<P2>min,[2]; individual replicates,0.178 and 0.208 and 0.194
CC(C)n1c(=O)cc(N[C@@H](C)c2ccccc2)[nH]c1=O [Mavacamten],IC50,[3],~1 µM
